Values of other authors as cited in US7125886B2, “5-HT3 receptor antagonists and methods of use” (Aryx Therapeutics, priority 2002, dated 2006).

Key:
[1] = target: T1, 5-HT3 receptor (Homo sapiens, UniProt P46098)
T1 sequence (P46098 24-478): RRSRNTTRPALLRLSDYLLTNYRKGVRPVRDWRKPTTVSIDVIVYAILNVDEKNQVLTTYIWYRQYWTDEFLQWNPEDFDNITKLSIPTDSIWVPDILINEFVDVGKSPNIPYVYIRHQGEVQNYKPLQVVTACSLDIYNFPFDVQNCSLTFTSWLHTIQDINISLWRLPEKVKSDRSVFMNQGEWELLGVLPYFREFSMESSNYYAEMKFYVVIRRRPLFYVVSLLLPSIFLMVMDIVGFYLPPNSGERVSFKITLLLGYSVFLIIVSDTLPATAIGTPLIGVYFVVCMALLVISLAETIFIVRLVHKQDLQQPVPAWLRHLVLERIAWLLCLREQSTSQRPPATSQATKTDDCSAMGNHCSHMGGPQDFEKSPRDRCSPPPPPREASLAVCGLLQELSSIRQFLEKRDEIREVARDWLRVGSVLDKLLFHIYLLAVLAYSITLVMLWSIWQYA

[2] = at least 12 weeks of treatment, patients with IBS
[3] = received by the FDA
[4] = up to 3 months of treatment; versus placebo and mebeverine

For `Cc1[nH]cnc1CN1CCc2c(c3cccc(O[C@@H]4O[C@H](C(=O)O)[C@@H](O)[C@H](O)[C@H]4O)c3n2C)C1=O` [6-OH-alosetron glucuronide], the “5-HT3 receptor binding affinity” value [1] is given as “potent”.
For `Cc1[nH]cnc1CN1CCc2c(c3ccccc3n2C)C1=O` [Alosetron, 2,3,4,5-tetrahydro-5-methyl-2-[(5-methyl-1H-imidazol-4-yl)methyl]-1H-pyrido [4,3-b]indol-1-one], the “constipation, patients with adverse event” value [2] is listed as 28%, the “reports of deaths associated with alosetron” value [3] is listed as 3 and the “greater drug exposure in females than males” value (females compared with males) is listed as 60%. The “mean peak plasma concentration higher in females” value (females compared with males) was 45–100%, the half-life (in vivo) was 1.5 h and the oral bioavailability (oral) was “approximately 60%”. For the same molecule, the “improving perception of visceral pain, spasms and diarrhea” value [4] was “significantly superior”.
For `Cc1[nH]cnc1CN1CCc2c(c3cccc(O)c3n2C)C1=O` [6-Hydroxy-alosetron], the “potency relative to alosetron” value [1] is listed as “twice as potent as alosetron”.
